Measured values reported in PubChem BioAssay (NCI).
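All cell lines were grown in 96-well plates and treated with compound for 48 hours. At the TGI there is no net growth.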

Columns and labels:
Assay in all cases: NCI anticancer screen, dose series, 48 h
KM12 colon = tested on: KM12 colon
HCT-116 colon = tested on: HCT-116 colon
PC-3 prostate = tested on: PC-3 prostate
ACHN renal = tested on: ACHN renal
HCT-15 colon = tested on: HCT-15 colon
NCI/ADR-RES ovarian = tested on: NCI/ADR-RES ovarian
SK-MEL-28 melanoma = tested on: SK-MEL-28 melanoma
LOX IMVI melanoma = tested on: LOX IMVI melanoma
T-47D breast = tested on: T-47D breast
786-0 renal = tested on: 786-0 renal

Structure (SMILES)	TGI (KM12 colon)	TGI (HCT-116 colon)	TGI (PC-3 prostate)	TGI (ACHN renal)	TGI (HCT-15 colon)	TGI (NCI/ADR-RES ovarian)	TGI (SK-MEL-28 melanoma)	TGI (LOX IMVI melanoma)	TGI (T-47D breast)	TGI (786-0 renal)
C1CCCCC2(CCCCCCCCC3(CCC1)SCCS3)SCCS2	> 100 µM	> 100 µM	> 100 µM	> 100 µM	> 100 µM	> 100 µM	> 100 µM	> 100 µM	> 100 µM	> 100 µM
CCOC(=O)c1cn2c(n1)sc1cc(OC)ccc12	> 100 µM	> 43.9 µM	> 100 µM	> 100 µM	> 55.3 µM	> 87.3 µM	> 100 µM	> 100 µM	–	> 100 µM
CN=C(Nc1ccc(OC)c2ccccc12)SC	> 10 µM	> 10 µM	> 10 µM	> 10 µM	> 10 µM	> 10 µM	> 10 µM	> 10 µM	> 10 µM	> 10 µM
N#CCCN(CCC#N)c1ccc(/C=C2\N=C(c3ccccc3)N(c3ccc(C(=O)O)cc3)C2=O)cc1	31 µM	> 100 µM	> 100 µM	> 100 µM	> 100 µM	> 100 µM	> 100 µM	93.2 µM	> 100 µM	> 100 µM
COC(=O)CCC1(CCC(=O)OC)CCCCCCC(CCC(=O)OC)(CCC(=O)OC)C(=O)C1=O	> 100 µM	> 100 µM	> 100 µM	> 100 µM	> 100 µM	> 100 µM	> 100 µM	> 100 µM	> 100 µM	> 100 µM
Oc1ccc(/C=C/c2cccc(/C=C/c3ccc(O)c(O)c3)n2)cc1O	36.2 µM	20.1 µM	> 100 µM	18.7 µM	> 100 µM	26.7 µM	38.3 µM	21.7 µM	7.06 µM	24.7 µM
CCc1ccc2[nH]c(O)c(C3=Nc4ccccc4C3=O)c2c1	> 100 µM	35.4 µM	50.1 µM	24.8 µM	> 100 µM	> 100 µM	> 100 µM	> 100 µM	77.5 µM	19 µM
CC1(C)OCC(C2OC3OC(C)(C)OC3C2c2ccccc2)O1 (stereo not given)	> 100 µM	> 100 µM	98.7 µM	> 100 µM	> 100 µM	> 100 µM	> 100 µM	> 100 µM	> 100 µM	> 100 µM
NC(=O)CSc1c2cc(O)ccc2nc2ccc(O)cc12	> 10 µM	> 10 µM	> 10 µM	> 10 µM	> 10 µM	> 10 µM	> 10 µM	> 10 µM	> 10 µM	> 10 µM
Cc1ccc(S(=O)(=O)CNC(=O)C(O)(O)C(F)(F)F)cc1	> 100 µM	> 100 µM	> 100 µM	–	> 100 µM	> 100 µM	> 100 µM	> 100 µM	> 100 µM	> 100 µM
COC1(C2c3ccccc3CCN2C(=O)OC(C)(C)C)C(=O)C(c2ccccc2)=C1N(C)C (stereo not given)	> 100 µM	96.9 µM	82.4 µM	> 100 µM	> 100 µM	57.9 µM	> 100 µM	–	> 100 µM	93.3 µM
CCCCCCCCC/C=C1/CC(CO)(COC(=O)CC(C(C)C)C(C)C)OC1=O (stereo not given)	23.1 µM	26.6 µM	21.3 µM	18.6 µM	29 µM	28.1 µM	31.8 µM	24.7 µM	19 µM	16.1 µM
N#Cc1c2ccc([N+](=O)[O-])cc2c(=O)n2c1[nH]c1ccc(C(F)(F)F)cc12	> 100 µM	> 41.6 µM	> 100 µM	> 100 µM	> 100 µM	> 100 µM	> 85.4 µM	45.6 µM	> 100 µM	> 100 µM
COc1ccc(C2=[S+]C(c3ccccc3)(c3ccccc3)c3ccccc32)cc1	31.1 µM	24.3 µM	> 100 µM	86.1 µM	54.6 µM	> 100 µM	58.5 µM	31.9 µM	84.3 µM	34.9 µM
CCOP(=O)(OCC)/C(C#N)=C/c1ccccn1	> 100 µM	> 100 µM	–	> 100 µM	> 100 µM	> 100 µM	> 100 µM	> 100 µM	> 100 µM	> 100 µM
CC[C@@H](CCCCC1CC[C@H]2CC(=O)C[C@@H]12)OC (stereo not given in full)	> 100 µM	> 100 µM	> 100 µM	> 100 µM	> 100 µM	> 100 µM	> 100 µM	> 100 µM	–	> 100 µM
